Assay results as given in patent US8753673B2, “Liposome composition for delivery of a therapeutic agent to eyes” (Taiwan Liposome Co. Ltd., priority 2006, dated 2014).

Tests used:
[1] = Bio-distribution of radioactivity in normal and CNV eyes of unilateral-CNV rats (γ scintillation counting after perfusion); format: in vivo, Brown Norway (BN) pigmented rats; details: for specific radioactivity, CNV eye: CNV (right) eye; for specific radioactivity, CNV eye / specific radioactivity, normal eye: i.v. 250 μCi, means ± s.d.; for specific radioactivity, normal eye: normal (left) eye
Description: (§1) In the process of monitoring the behavior of these animals, 2 to 3 out of the 10 rats were unable to walk straight. This abnormal behavior might be related to vision loss of the right eye as the result of laser photocoagulation. There were no other noticeable side effects observed in these rats.
After the SPECT, all rats were sacrificed and perfused with normal saline containing 2 mM EDTA. Animals were dissected to isolate both normal (left) and CNV (right) eyes. The isolated eyes were weighted and radioactivity associated with the eyes was counted by a γ scintillation counter (Cobra II Autogamma, Packed, USA). The uptake of radiotracer in the eyes or other tissues was expressed in counts per minute (cpm) with decay correction and was normalized as percent of injection dose per gram tissue (% ID/g).
The experiment determines the biodistribution of In^111, a small molecular marker and In^111-encapsulated liposome, a lipid nano-particle in an experimental CNV model. Ten unilateral CNV rats were randomly divided into two groups with 4 and 6 rats, respectively. Group 1 received 250 μCi of In^111-DTPA and group 2 received 250 μCi of In^111-encapsulated liposome by intravenous injection.

[2] = Single-photon emission computed tomography (SPECT) imaging of unilateral-CNV rats; format: in vivo, Brown Norway (BN) pigmented rats; details: 3, 24 and 48 hours after i.v. 250 μCi
Description: as §1
The SPECT imaging was carried out at 3, 24, and 48 hours after the injection of 250 μCi of either In^111-DTPA or In^111 encapsulated liposome. […] The center field of view was 25.4 cm^2 and a single energy centered window was used at […], with a width of 20%. A sequence of scans ([…]×6) was obtained over a period of 15 min. Images were reconstructed in a 128×128 (pixels) format from data with 32 projections distributed over 180° around the rat and a 40 s scan for each projection. The projections of each experiment were processed by reconstruction using filtered back projection, with a low-pass Butterworth filter of order 22.4 and cutoff frequency of 0.43. Each transverse image was reconstructed in a 128×128 array with a pixel size of 1.9×1.9 mm and a zoom of 2.0×.
The experiment determines the biodistribution of In^111, a small molecular marker and In^111-encapsulated liposome, a lipid nano-particle in an experimental CNV model. Ten unilateral CNV rats were randomly divided into two groups with 4 and 6 rats, respectively. […]

[3] = Fluorescein angiography (FAG) and visual observation of eyes in unilateral-CNV rats after i.v. injection; details: normal and CNV eyes, visual observation up to 24 hours
Description: Brown Norway (BN) pigmented rats, weighing between 200 and 250 gram, were anesthetized with intramuscular injection of 0.15 ml/kg of an equal-volume mixture of 2% lidocaine (Xylocalne; Astra, Astra Södertalje, Sweden) and 50 mg/mL ketamine (Ketalar; Parke-Davis, Morris Plains, N.J.). After anesthetizing, the right pupils were dilated with 1% tropicamide (1% Mydriacyl; Alcon Laboratories, Watford, UK). A small piece of transparent sheet (3M, Minneapolis, Minn.) approximately 3 mm in diameter was attached to the cornea by sodium hyaluronidase (Healon; Pharmacia and Upjohn, Inc., Kalamazoo, Mich.) to serve as a contact lens. Krypton laser (Novus Omni; Coherent, Palo Alto, Calif.) irradiation was delivered through a slit lamp (Carl Zeiss, Oberkochen, Germany). Laser parameters used were as follows: spot size of 100 mm, power of 120 to 160 mW, and exposure duration of 0.1 second. […] CNV was evaluated on day 14 by opthalmoscopy, fundus photography, and conventional fluorescein angiography (FAG) modified from (DiLoreto D, Grover D A, Del Cerro C. (1994) Curr Eye Res. 13, 157-61).
Fluorescein sodium (10%; 0.1 ml/kg; Fluorescite™; Alcon, Fort Worth, Tex.) was injected through the tail vein of the anesthetized rats 14 days after laser photocoagulation. The CNV lesions were recorded with a digital fundus camera (Retinal Angiography; Heidelberg Engineering, Heidelberg, Germany). […]

difference in specific radioactivity between the normal and CNV eyes ([1]; 24 and 48 hours post-injection)	specific radioactivity, CNV eye ([1]; 24 hours post injection) [% ID/g]	specific radioactivity, CNV eye ([1]; 48 hours post injection) [% ID/g]	specific radioactivity, normal eye ([1]; 24 hours post injection) [% ID/g]	specific radioactivity, normal eye ([1]; 48 hours post injection) [% ID/g]	Compound	accumulation of radioactivity in eyes on SPECT images [2]	visual appearance (colour) of the eyes after i.v. administration [3]
no difference	0.14 ± 0.09	0.13 ± 0.05	0.16 ± 0.04	0.14 ± 0.06	O=C([O-])CN(CCN(CC(=O)[O-])CC(=O)[O-])CCN(CC(=O)[O-])CC(=O)[O-].[111In+3].[H+].[H+] [In^111-DTPA]	did not show any In^111 accumulation in both normal and CNV eyes even at 3 hours	–
–	–	–	–	–	O=C1OC2(c3ccc(O)cc3Oc3cc(O)ccc32)c2ccccc21 [fluorescein sodium, Fluorescein sodium]	–	greenish color quickly disappeared within an hour
